Measurements: patent US11225482B2, “Dihydropyrrolopyrimidines for the treatment and prophylaxis of hepatitis B virus infection” (Hoffmann-La Roche Inc., priority 2017, dated 2022)
pIC50: −log10 of the molar value.

Key:
[1] = test system: HBV DNA; test: HBV DNA assay (real-time qPCR/TaqMan) in HepG2.2.15 cells; format: cell-based; settings: Hepatitis B virus, 144 h, extracellular HBV DNA in supernatant, six days after initial administration, qPCR, read-out: IC50 (Anti HBV DNA production activity)
Experimental: (§1) HepG2.2.15 cells (Acs et al. Proc Natl Acad Sci USA, 84, (1987), 4641-4), a constitutively HBV-expressing cell line were cultured in DMEM+Glutamax-I medium (Invitrogen, Carlsbad, Calif., USA), supplemented with 10% fetal bovine serum (Invitrogen) and G418 (Invitrogen) at a final concentration of 200 mg/L and maintained in 5% CO2 at 37° C.
The assay employs real-time qPCR (TaqMan) to directly measure extracellular HBV DNA copy number in the cell supernatant, HepG2.2.15 cells were plated in 96-well microtiter plates before treatment with complete medium (DMEM, Glutamax, 10% FBS, 1% Penicillin/Streptomycin, 250 μg/mL Genetycin, final DMSO concentration is 1%). Only the interior wells were utilized to reduce “edge effects” observed during cell culture, the exterior wells were filled with complete medium to help minimize sample evaporation. The HepG2.2.15 cells were treated 1 h later with various concentrations of a test compound in duplicate (top concentration used at 5 μM, 2 μM or 0.5 μM according to the HBsAg IC50 observed, with ⅓ successive dilutions (total of 10 dilutions). Six days following the initial administration of the test compound, the cell culture supernatant was collected; DNA extraction was performed by automated system (Magnapure) and then used in a real-time qPCR/TaqMan assay to determine HBV DNA copy numbers. Antiviral activity was calculated from the reduction in HBV DNA levels (IC50).

[2] = test system: HBsAg; test: HBsAg assay (CLIA) in HepG2.2.15 cells; format: cell-based, HBV; settings: Hepatitis B virus, HepG2.2.15, read-out: IC50 (HBsAg assay)
Experimental: as §1
HepG2.2.15 cells were seeded in duplicate into white, 96-well plates at 1.5×10^4 cells/well. The cells were treated with a three-fold serial dilution series of the compounds in DMSO. The final DMSO concentration in all wells was 1% and DMSO was used as no drug control.
The HBsAg chemiluminescence immunoassay (CLIA) kit (Autobio Diagnostics Co., Zhengzhou, China, Catalog number: CL0310-2) was used to measure the levels of secreted HBV antigens semi-quantitatively. For the detection 50 μL/well culture supernatant was used and HBsAg was quantified using HBsAg chemiluminescence immunoassay (CLIA) kit (Autobio Diagnostics Co., Zhengzhou, China, Catalog number: CL0310-2), 50 μL of the supernatant was transferred to the CLIA assay plate and 50 μL of enzyme conjugate reagent was added into each well. The plates were sealed and gently agitated for 1 hour at room temperature. The supernatant-enzyme-mixture was discarded and wells were washed 6 times with 300 μL of PBS. The residual liquid was removed by plating the CLIA plate […] on absorbent tissue paper. 25 μL of substrates A and B were added to each well. Luminance was measured using a luminometer (Mithras LB 940 Multimode Microplate Reader) after 10 minutes incubation. Dose-response curves were generated and the IC50 value was extrapolated by using the E-WorkBook Suite (ID Business Solutions Ltd., Guildford, UK). The IC50 was defined as the compound concentration (or conditioned media log dilution) at which HBsAg secretion was reduced by 50% compared to the no drug control.

SMILES | pIC50 [1] | pIC50 [2]
CC1c2cnc(-c3ncccn3)nc2CN1C(=O)c1nn(C)c2ccccc12 (stereo not drawn) [Example 12, (1-Methylindazol-3-yl)-(5-methyl-2-pyrimidin-2-yl-5,7-dihydropyrrolo[3,4-d]pyrimidin-6-yl)methanone] | 8.25 | 6.80
Cc1c(C(=O)N2Cc3nc(-c4ncccn4)ncc3C2C)oc2ccccc12 (stereo not drawn) [Example 21, (3-Methylbenzofuran-2-yl)-(5-methyl-2-pyrimidin-2-yl-5,7-dihydropyrrolo[3,4-d]pyrimidin-6-yl)methanone] | 7.58 | 6.66
Cc1nc(C(=O)N2Cc3nc(-c4ncccn4)ncc3C2C)sc1C (stereo not drawn) [Example 10, (4,5-Dimethylthiazol-2-yl)-(5-methyl-2-pyrimidin-2-yl-5,7-dihydropyrrolo[3,4-d]pyrimidin-6-yl)methanone] | 7.17 | 6.55
CC1c2cnc(-c3ncccn3)nc2CN1c1cc(N2CCCCC2)cc(F)n1 (stereo not drawn) [Example 41, 6-[6-Fluoro-4-(1-piperidyl)-2-pyridyl]-5-methyl-2-pyrimidin-2-yl-5,7-dihydropyrrolo[3,4-d]pyrimidine] | – | 7.39
CC1c2cnc(-c3ncccn3)nc2CN1C(=O)c1nc2ccccc2s1 (stereo not drawn) [Example 28, 1,3-Benzothiazol-2-yl-(5-methyl-2-pyrimidin-2-yl-5,7-dihydropyrrolo[3,4-d]pyrimidin-6-yl)methanone] | – | 5.75
COc1cc(F)nc(N2Cc3nc(-c4ncccn4)ncc3C2C)c1 (stereo not drawn) [Example 30, 6-(6-Fluoro-4-methoxy-2-pyridyl)-5-methyl-2-pyrimidin-2-yl-5,7-dihydropyrrolo[3,4-d]pyrimidine] | 8.19 | 7.30
CC1c2cnc(-c3ncccn3)nc2CN1C(=O)c1cnn2ccccc12 (stereo not drawn) [Example 24, (5-Methyl-2-pyrimidin-2-yl-5,7-dihydropyrrolo[3,4-d]pyrimidin-6-yl)-pyrazolo[1,5-a]pyridin-3-yl-methanone] | – | 6.81
Cc1ccc(C(=O)N2Cc3nc(-c4ncccn4)ncc3C2C)s1 (stereo not drawn) [Example 8, (5-Methyl-2-pyrimidin-2-yl-5,7-dihydropyrrolo[3,4-d]pyrimidin-6-yl)-(5-methyl-2-thienyl)methanone] | – | 6.17
CC1c2cnc(-c3ncccn3)nc2CN1c1cc(N2CCC2)cc(F)n1 (stereo not drawn) [Example 39, 6-[4-(Azetidin-1-yl)-6-fluoro-2-pyridyl]-5-methyl-2-pyrimidin-2-yl-5,7-dihydropyrrolo[3,4-d]pyrimidine] | – | 7.70
CC1c2cnc(-c3ncccn3)nc2CN1C(=O)c1cnc2ccccn12 (stereo not drawn) [Example 26, Imidazo[1,2-a]pyridin-3-yl-(5-methyl-2-pyrimidin-2-yl-5,7-dihydropyrrolo[3,4-d]pyrimidin-6-yl)methanone] | – | 6.66
CC1c2cnc(-c3ncccn3)nc2CN1C(=O)c1cn2ccccc2n1 (stereo not drawn) [Example 20, Imidazo[1,2-a]pyridin-2-yl-(5-methyl-2-pyrimidin-2-yl-5,7-dihydropyrrolo[3,4-d]pyrimidin-6-yl)methanone] | – | 6.30
CC1c2cnc(-c3ncccn3)nc2CN1C(=O)c1ccc2ccccc2c1 (stereo not drawn) [Example 19, (5-Methyl-2-pyrimidin-2-yl-5,7-dihydropyrrolo[3,4-d]pyrimidin-6-yl)-(2-naphthyl)methanone] | – | 5.10
CC1c2cnc(-c3ncccn3)nc2CN1C(=O)c1cc(C(F)(F)F)cs1 (stereo not drawn) [Example 3, (5-Methyl-2-pyrimidin-2-yl-5,7-dihydropyrrolo[3,4-d]pyrimidin-6-yl)-[4-(trifluoromethyl)-2-thienyl]methanone] | – | 6.26
CC1c2cnc(-c3ncccn3)nc2CN1c1cc(F)cc(F)n1 (stereo not drawn) [Example 31, 6-(4,6-difluoro-2-pyridyl)-5-methyl-2-pyrimidin-2-yl-5,7-dihydropyrrolo[3,4-d]pyrimidine] | – | 6.18
CC1c2cnc(-c3ncccn3)nc2CN1C(=O)c1cccs1 (stereo not drawn) [Example 5, (5-Methyl-2-pyrimidin-2-yl-5,7-dihydropyrrolo[3,4-d]pyrimidin-6-yl)-(2-thienyl)methanone] | – | 5.77
Cc1csc(C(=O)N2Cc3nc(-c4ncccn4)ncc3C2C)c1 (stereo not drawn) [Example 6, (5-Methyl-2-pyrimidin-2-yl-5,7-dihydropyrrolo[3,4-d]pyrimidin-6-yl)-(4-methyl-2-thienyl)methanone] | – | 5.95
CCn1ccc(C(=O)N2Cc3nc(-c4ncccn4)ncc3C2C)n1 (stereo not drawn) [Example 16, (1-Ethylpyrazol-3-yl)-(5-methyl-2-pyrimidin-2-yl-5,7-dihydropyrrolo[3,4-d]pyrimidin-6-yl)methanone] | – | 5.33
